Measurements taken from patent publication US8604055B2, “Substituted benzylamino quinolines as cholesterol ester-transfer protein inhibitors” (Dr. Reddy's Laboratories Ltd., priority 2004, dated 2013).

The compounds below were run against T1, Recombinant CETP enzyme (Homo sapiens, UniProt P11597) (assay: In vitro fluorescence-based CETP inhibition assay (BODIPY-CE transfer from donor to acceptor microemulsions)). Conditions: recombinant CETP 0.14 ng/μl; transfer of fluorescent cholesteryl ester monitored over 2 hours; vs DMSO controls.
T1 construct: purchased Cardiovascular Targets
T1 sequence (P11597 18-493): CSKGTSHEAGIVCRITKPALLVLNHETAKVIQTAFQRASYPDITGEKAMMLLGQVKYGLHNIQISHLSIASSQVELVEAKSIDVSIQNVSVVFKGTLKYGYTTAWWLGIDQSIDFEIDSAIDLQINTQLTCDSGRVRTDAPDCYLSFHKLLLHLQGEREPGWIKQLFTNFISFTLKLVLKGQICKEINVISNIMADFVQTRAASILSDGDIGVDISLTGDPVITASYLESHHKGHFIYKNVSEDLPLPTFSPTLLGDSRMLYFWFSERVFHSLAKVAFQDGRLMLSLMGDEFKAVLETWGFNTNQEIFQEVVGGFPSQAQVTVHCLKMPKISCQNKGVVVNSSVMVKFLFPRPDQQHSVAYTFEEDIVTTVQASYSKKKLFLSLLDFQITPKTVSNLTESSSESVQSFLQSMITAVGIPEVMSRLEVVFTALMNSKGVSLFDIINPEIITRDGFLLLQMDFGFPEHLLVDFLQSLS
Format: biochemical
Description: An in vitro fluorescence-based assay to identify CETP inhibitors was developed from modifications of the protocols outlined in Bisgaier et al., J Lipid Res., 34(9): 1625-34 (1993) and Epps et al., Chem Phys Lipids., 77(1): 51-63 (1995). Acceptor and donor lipid microemulsions were prepared according to Bisgaier et al., 1993, except that the buffer was prepared with 0.67 ug/mL human HDL (Calbiochem). Donor microemulsions contained the fluorescent cholesteryl ester analog BODIPY-CE (Molecular Probes), characterized by excitation and emission maxima at 503 nm and 518 nm, respectively. The CETP-mediated transfer of fluorescent cholesteryl ester to acceptor particles was monitored over a 2-hour time period using the FAM filter set (excitation 492 nm, emission 516 nm) in an MX3000P fluorescent plate reader (Stratagene). Recombinant CETP enzyme (Cardiovascular Targets) was used at 0.14 ng/μl, final concentration, to achieve lipid transfer. CETP inhibition by compounds was compared to DMSO controlsand graphed as a percentage of the control CETP activity over 2 hours. The IC50 curves for CETP inhibition were generated from the activity profiles. Active compounds were also tested for CETP inhibition as above, but in the presence of 3% human serum albumin, fraction V (Calbiochem).

| IC50 | Structure (SMILES) |
| --- | --- |
| ≤ 5 µM | CCCCN(CC)c1nc2ccccc2cc1CN(Cc1cc(C(F)(F)F)cc(C(F)(F)F)c1)C(=O)OCC [Example 41, (3,5-bis-trifluoromethyl-benzyl)-[2-(butyl-ethyl-amino)-quinolin-3-ylmethyl]-carbamic acid ethyl ester] |
| ≤ 5 µM | CCOC(=O)N(Cc1cc(C(F)(F)F)cc(C(F)(F)F)c1)Cc1cc2ccccc2nc1N(CC)CC1CCCCC1 [Example 42, (3,5-bis-trifluoromethyl-benzyl)-[2-(cyclohexylmethyl-ethyl-amino)-quinolin-3-ylmethyl]-carbamic acid ethyl ester] |
| ≤ 5 µM | CCCN(CC1CCCC1)c1nc2ccccc2cc1CN(Cc1cc(C(F)(F)F)cc(C(F)(F)F)c1)C(=O)OCC [Example 43, (3,5-bis-trifluoromethyl-benzyl)-[2-(cyclopentylmethyl-propyl-amino)-quinolin-3-ylmethyl]-carbamic acid ethyl ester] |
| ≤ 5 µM | CCN(CC1CC1)c1nc2ccccc2cc1CN(Cc1cc(C(F)(F)F)cc(C(F)(F)F)c1)C(=O)OC [Example 44, (3,5-bis-trifluoromethyl-benzyl)-[2-(cyclopropylmethyl-ethyl-amino)-quinolin-3-ylmethyl]-carbamic acid methyl ester] |
| ≤ 5 µM | CCN(CC1CCC1)c1nc2ccccc2cc1CN(Cc1cc(C(F)(F)F)cc(C(F)(F)F)c1)C(=O)OC [Example 45] |
| ≤ 5 µM | CCN(CC1CCCC1)c1nc2ccc(C)cc2cc1CN(Cc1cc(C(F)(F)F)cc(C(F)(F)F)c1)C(=O)OC [Example 46, (3,5-bis-trifluoromethyl-benzyl)-[2-(cyclopentylmethyl-ethyl-amino)-6-methyl-quinolin-3-ylmethyl]-carbamic acid methyl ester] |
| ≤ 5 µM | CCN(CC1CCCC1)c1nc2ccccc2cc1CN(Cc1cc(C(F)(F)F)cc(C(F)(F)F)c1)C(=S)SC [Example 48, (3,5-bis-trifluoromethyl-benzyl)[2-(cyclopentylmethyl-ethyl-amino)-quinolin-3-ylmethyl]-dithiocarbamic acid methyl ester] |
| ≤ 5 µM | CCOC(=O)NC(=S)N(Cc1cc(C(F)(F)F)cc(C(F)(F)F)c1)Cc1cc2ccccc2nc1N(CC)CC1CCCC1 [Example 49, 3-ethoxycarbonyl-1-(3,5-Bis-trifluoromethyl-benzyl)-1-[2-(cyclopentylmethyl-ethyl-amino)-quinolin-3-ylmethyl]-thiourea] |
| ≤ 1 µM | CCCCN(CC)c1nc2ccccc2cc1CN(Cc1cc(C(F)(F)F)cc(C(F)(F)F)c1)c1nnn(C)n1 [Example 54] |
| ≤ 1 µM | CCN(CC1CC1)c1nc2ccccc2cc1CN(Cc1cc(C(F)(F)F)cc(C(F)(F)F)c1)c1nnn(C)n1 [Example 55] |
| ≤ 1 µM | CCN(CC1CCC1)c1nc2ccccc2cc1CN(Cc1cc(C(F)(F)F)cc(C(F)(F)F)c1)c1nnn(C)n1 [Example 56] |
| ≤ 5 µM | CCN(CC1CCCC1)c1nc2ccccc2cc1CN(Cc1cc(C(F)(F)F)cc(C(F)(F)F)c1)c1nc(C)cs1 [Example 63] |
| ≤ 1 µM | CCN(CC1CCC1)c1nc2ccccc2cc1CN(Cc1cc(C(F)(F)F)cc(C(F)(F)F)c1)c1cc(C)on1 [Example 65, (3-{[3,5-bis-trifluoromethyl-benzyl-(5-methyl-isoxazol-3-yl)-amino]-methyl}-quinolin-2-yl)-cyclobutylmethyl-ethyl-amine] |
| ≤ 5 µM | CCN(CC1CCCC1)c1nc2ccccc2cc1CN(Cc1cc(C(F)(F)F)cc(C(F)(F)F)c1)c1ncccn1 [Example 66, (3-{[(3,5-bis-trifluoromethyl-benzyl)-pyrimidin-2-yl-amino]-methyl}-quinolin-2-yl)-cyclopentylmethyl-ethyl-amine] |
| ≤ 1 µM | CCN(CC1CCCC1)c1nc2ccccc2cc1CN(Cc1cc(C(F)(F)F)cc(C(F)(F)F)c1)c1nc(C)co1 [Example 67] |
| ≤ 5 µM | CCN(CC1CCCC1)c1nc2ccccc2cc1CN(Cc1cc(C(F)(F)F)cc(C(F)(F)F)c1)C1=NCCO1 [Example 68, (3-{[(3,5-bis-trifluoromethyl-benzyl)-(4,5-dihydro-oxazol-2-yl)-amino]-methyl}-quinolin-2-yl)-cyclopentylmethyl-ethyl-amine] |

| IC50 | Structure (SMILES) |
| --- | --- |
| ≤ 5 µM | CCN(CC1CCCC1)c1nc2ccccc2cc1CN(Cc1cc(C(F)(F)F)cc(C(F)(F)F)c1)c1ccccn1 [Example 69, (3-{[(3,5-bis-trifluoromethyl-benzyl)-pyridin-2-yl-amino]-methyl)-quinolin-2-yl)-cyclopentylmethyl-ethyl-amine] |
| ≤ 5 µM | CCN(CC1CCCC1)c1nc2ccccc2cc1CN(Cc1cc(C(F)(F)F)cc(C(F)(F)F)c1)Cc1nnn(C)n1 [Example 70, (3-{[(3,5-bis-trifluoromethyl-benzyl)-(2-methyl-2H-tetrazol-5-ylmethyl)-amino]-methyl}-quinolin-2-yl)-cyclopentylmethyl-ethyl-amine] |
| ≤ 5 µM | CCN(CC1CCCC1)c1nc2ccccc2cc1CN(Cc1cc(C(F)(F)F)cc(C(F)(F)F)c1)Cc1nnnn1C [Example 71, (3-{[(3,5-bis-trifluoromethyl-benzyl)-(1-methyl-1H-tetrazol-5-ylmethyl)-amino]-methyl}-quinolin-2-yl)-cyclopentylmethyl-ethyl-amine] |
| ≤ 5 µM | CCCCN(CC)c1ncccc1CN(Cc1cc(C(F)(F)F)cc(C(F)(F)F)c1)c1nnn(C)n1 [Example 73] |
| ≤ 1 µM | CCN(CC1CCCC1)c1nc2c(cc1CN(Cc1cc(C(F)(F)F)cc(C(F)(F)F)c1)C(=O)OC)CCCC2 [Example 74] |
| ≤ 5 µM | CCN(CC1CCCC1)c1nc2c(cc1CN(Cc1cc(C(F)(F)F)cc(C(F)(F)F)c1)C(=O)OC)CCC2 [Example 75, (3,5-bis-trifluoromethyl-benzyl)-[2-(cyclopentylmethyl-ethyl-amino)-6,7-dihydro-5H-[1]pyridin-3-ylmethyl]-carbamic acid methyl ester] |
| ≤ 1 µM | CCN(CC1CCCC1)c1nc2c(cc1CN(Cc1cc(C(F)(F)F)cc(C(F)(F)F)c1)c1nnn(C)n1)CCC2 [Example 76, (3-{[(3,5-bis-trifluoromethyl-benzyl)-(2-methyl-2H-tetrazole-5-yl)-amino]-methyl}-,6,7-dihydro-5H-[1]pyridine-2-yl)-cyclopentylmethyl-ethyl-amine] |
| ≤ 1 µM | CCN(CC1CCCC1)c1nc2c(cc1CN(Cc1cc(C(F)(F)F)cc(C(F)(F)F)c1)c1nnn(C)n1)CCCC2 [Example 77] |
| ≤ 1 µM | CCN(CC1CCCC1)c1nc2c(cc1CN(Cc1cc(C(F)(F)F)cc(C(F)(F)F)c1)c1nnc(C)o1)CCCC2 [Example 78, (3-{[3,5-bis-trifluoromethyl-benzyl)-(5-methyl-[1,3,4oxadiazol-2-yl)-amino]-methyl}-5,6,7,8-tetrahydroquinoline-2-yl)-cyclopentylmethyl-ethyl-amine] |
| ≤ 1 µM | Cc1cccc2cc(CN(Cc3cc(C(F)(F)F)cc(C(F)(F)F)c3)c3nnn(C(C)C)n3)c(N(CC3CC3)CC3CC3)nc12 [Example 85] |
| ≤ 1 µM | Cc1cccc2cc(CN(Cc3cc(C(F)(F)F)cc(C(F)(F)F)c3)c3nnn(CCNC(=O)OC(C)(C)C)n3)c(N(CC3CC3)CC3CC3)nc12 [Example 86, (2-{5-[[2-(bis-cyclopropylmethyl-amino)-8-methyl-quinolin-3-ylmethyl]-(3,5-bis-trifluoromethyl-benzyl)-amino]-tetrazol-2-yl}-ethyl)-carbamic acid tert-butyl ester] |
| ≤ 1 µM | Cn1nnc(N(Cc2cc(C(F)(F)F)cc(C(F)(F)F)c2)Cc2cc3cccc(Cl)c3nc2N(CC2CC2)CC2CC2)n1 [Example 90] |
| ≤ 1 µM | Cc1cccc2cc(CN(Cc3cc(C(F)(F)F)cc(C(F)(F)F)c3)c3nnn(CCO)n3)c(N(CC3CC3)CC3CC3)nc12 [Example 93, 2-{5-[[2-(bis-cyclopropylmethyl-amino)-8-methyl-quinoline-3-ylmethyl]-(3,5-bistrifluoromethyl-benzyl)-amino]-tetrazol-2-yl}-ethanol] |
| ≤ 1 µM | CCN(CC1CCC1)c1nc2c(cnn2CC2CC2)cc1CN(Cc1cc(C(F)(F)F)cc(C(F)(F)F)c1)c1nnn(C)n1 [Example 101, (5-{[(3,5-bis-trifluoromethyl-benzyl)-(2-methyl-2H-tetrazol-5-yl)-amino]methyl}-1-cyclopropylmethyl-1H-pyrazolo[3,4-b]pyridin-6-yl)-cyclobutylmethyl-ethyl-amine] |
| ≤ 1 µM | Cc1cccc2cc(CN(Cc3cc(C(F)(F)F)cc(C(F)(F)F)c3)c3ccc(Br)cn3)c(N(CC3CC3)CC3CC3)nc12 [Example 111, (3-{[(3,5-bis-trifluoromethyl-benzyl)-(5-bromo-pyridin-2-yl)-amino]-methyl}-8-methyl-quinolin-2-yl)-bis-cyclopropylmethyl-amine] |
